# According to patent US10457703B2, “Bile acid derivatives as FXR/TGR5 agonists and methods of use thereof” (ENANTA PHARMACEUTICALS, INC., priority 2015, dated 2019):
# Molecular target: human FXR (NR1H4) (Homo sapiens (Human), UniProt Q96RI1)
# Experiment: Human FXR (NR1H4) Assay (Gal4 promoter driven luciferase reporter, Indigo Bioscience kit);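 on Efficacy (%): 100% equals the efficacy of CDCA; efficacy normalized to CDCA set as 100%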
# Assay type: cell-based
# Settings: for EC50: Human FXR (NR1H4) Assay, potency ranges; for Emax: read-out: Efficacy (%)
# How it was run: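 CHO reporter cells expressing human FXR with an FXR-responsive luciferase reporter, treated with compound doses at 0.2% DMSO. Incubation lasted 22 h at 37 °C before luciferase detection reagent was added. Luminescence was then read.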
# Sequence of human FXR (NR1H4) (Q96RI1 whole entry, the tested form may be a part): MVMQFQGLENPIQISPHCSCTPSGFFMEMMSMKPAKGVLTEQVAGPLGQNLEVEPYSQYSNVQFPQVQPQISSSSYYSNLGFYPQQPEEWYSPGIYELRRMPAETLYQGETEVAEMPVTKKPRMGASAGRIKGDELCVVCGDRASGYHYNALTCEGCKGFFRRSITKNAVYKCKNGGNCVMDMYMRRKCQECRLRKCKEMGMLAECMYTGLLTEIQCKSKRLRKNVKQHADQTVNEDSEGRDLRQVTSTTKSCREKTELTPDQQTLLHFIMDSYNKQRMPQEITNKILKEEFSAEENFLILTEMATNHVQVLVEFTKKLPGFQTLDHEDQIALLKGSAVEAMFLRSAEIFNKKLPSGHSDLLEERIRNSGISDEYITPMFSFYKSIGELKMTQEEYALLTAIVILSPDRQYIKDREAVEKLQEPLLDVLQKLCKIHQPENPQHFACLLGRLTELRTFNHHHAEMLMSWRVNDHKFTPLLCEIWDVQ
SMILES,EC50 [nM],Emax [%]
CC[C@H]1[C@@H](O)[C@@H]2[C@H](CC[C@]3(C)[C@@H]([C@H](C)CCOC(=O)Nc4ccc5ccccc5c4)CC[C@@H]23)[C@@]2(C)CC[C@@H](O)C[C@@H]12 [Example 197],1000 to 10000,101
CC[C@H]1[C@@H](O)[C@@H]2[C@H](CC[C@]3(C)[C@@H]([C@H](C)COC(=O)NC4CC4)CC[C@@H]23)[C@@]2(C)CC[C@@H](O)C[C@@H]12 [Example 198],1000 to 10000,139
CC[C@H]1[C@@H](O)[C@@H]2[C@H](CC[C@]3(C)[C@@H]([C@H](C)COC(=O)NC4CCCCC4)CC[C@@H]23)[C@@]2(C)CC[C@@H](O)C[C@@H]12 [Example 199],1000 to 10000,14
CC[C@H]1[C@@H](O)[C@@H]2[C@H](CC[C@]3(C)[C@@H]([C@H](C)COC(=O)N4CCC4)CC[C@@H]23)[C@@]2(C)CC[C@@H](O)C[C@@H]12 [Example 200],1000 to 10000,7
CC[C@H]1[C@@H](O)[C@@H]2[C@H](CC[C@]3(C)[C@@H]([C@H](C)COC(=O)N4CCCCC4)CC[C@@H]23)[C@@]2(C)CC[C@@H](O)C[C@@H]12 [Example 201],100 to 1000,1
CC[C@H]1[C@@H](O)[C@@H]2[C@H](CC[C@]3(C)[C@@H]([C@H](C)CCOC(=O)N4CCC(CO)CC4)CC[C@@H]23)[C@@]2(C)CC[C@@H](O)C[C@@H]12 [Example 202],100 to 1000,393
CC[C@H]1[C@@H](O)[C@@H]2[C@H](CC[C@]3(C)[C@@H]([C@H](C)CCOC(=O)N4CCC[C@H](CO)C4)CC[C@@H]23)[C@@]2(C)CC[C@@H](O)C[C@@H]12 [Example 203],100 to 1000,380
CC[C@H]1[C@@H](O)[C@@H]2[C@H](CC[C@]3(C)[C@@H]([C@H](C)CCOC(=O)N4CCC[C@@H](CO)C4)CC[C@@H]23)[C@@]2(C)CC[C@@H](O)C[C@@H]12 [Example 204],< 100,310
CC[C@H]1[C@@H](O)[C@@H]2[C@H](CC[C@]3(C)[C@@H]([C@H](C)COC(=O)NCc4ccccc4)CC[C@@H]23)[C@@]2(C)CC[C@@H](O)C[C@@H]12 [Example 205],1000 to 10000,5
CC[C@H]1[C@@H](O)[C@@H]2[C@H](CC[C@]3(C)[C@@H]([C@H](C)CCOC(=O)N[C@@H]4CCC[C@@H]4O)CC[C@@H]23)[C@@]2(C)CC[C@@H](O)C[C@@H]12 [Example 206],< 100,174
CC[C@H]1[C@@H](O)[C@@H]2[C@H](CC[C@]3(C)[C@@H]([C@H](C)CCOC(=O)N[C@@H]4CCC[C@H]4O)CC[C@@H]23)[C@@]2(C)CC[C@@H](O)C[C@@H]12 [Example 207],100 to 1000,188
CC[C@H]1[C@@H](O)[C@@H]2[C@H](CC[C@]3(C)[C@@H]([C@H](C)CCOC(=O)N[C@H]4CCC[C@@H]4O)CC[C@@H]23)[C@@]2(C)CC[C@@H](O)C[C@@H]12 [Example 208],100 to 1000,205
CC[C@H]1[C@@H](O)[C@@H]2[C@H](CC[C@]3(C)[C@@H]([C@H](C)CCOC(=O)N4CCC[C@@H]4CO)CC[C@@H]23)[C@@]2(C)CC[C@@H](O)C[C@@H]12 [Example 209],< 100,199
CC[C@H]1[C@@H](O)[C@@H]2[C@H](CC[C@]3(C)[C@@H]([C@H](C)CCOC(=O)N4CCC[C@H]4CO)CC[C@@H]23)[C@@]2(C)CC[C@@H](O)C[C@@H]12 [Example 210],< 100,156
CC[C@H]1[C@@H](O)[C@@H]2[C@H](CC[C@]3(C)[C@@H]([C@H](C)CCOC(=O)N4CC[C@H](CO)C4)CC[C@@H]23)[C@@]2(C)CC[C@@H](O)C[C@@H]12 [Example 211],< 100,198
CC[C@H]1[C@@H](O)[C@@H]2[C@H](CC[C@]3(C)[C@@H]([C@H](C)CCOC(=O)N4CC[C@@H](CO)C4)CC[C@@H]23)[C@@]2(C)CC[C@@H](O)C[C@@H]12 [Example 212],< 100,479
CC[C@H]1[C@@H](O)[C@@H]2[C@H](CC[C@]3(C)[C@@H]([C@H](C)CCOC(=O)N4CCC(C)(CO)CC4)CC[C@@H]23)[C@@]2(C)CC[C@@H](O)C[C@@H]12 [Example 213],< 100,460
CC[C@H]1[C@@H](O)[C@@H]2[C@H](CC[C@]3(C)[C@@H]([C@H](C)CCOC(=O)N4CC(CO)C4)CC[C@@H]23)[C@@]2(C)CC[C@@H](O)C[C@@H]12 [Example 214],< 100,194
CC[C@H]1[C@@H](O)[C@@H]2[C@H](CC[C@]3(C)[C@@H]([C@H](C)CCOC(=O)N4CC[C@@H](O)C4)CC[C@@H]23)[C@@]2(C)CC[C@@H](O)C[C@@H]12 [Example 215],< 100,143
CC[C@H]1[C@@H](O)[C@@H]2[C@H](CC[C@]3(C)[C@@H]([C@H](C)CCOC(=O)N[C@H]4CCC[C@H]4O)CC[C@@H]23)[C@@]2(C)CC[C@@H](O)C[C@@H]12 [Example 216],100 to 1000,478
CC[C@H]1[C@@H](O)[C@@H]2[C@H](CC[C@]3(C)[C@@H]([C@H](C)CCOC(=O)N4CCC(CC)(CO)CC4)CC[C@@H]23)[C@@]2(C)CC[C@@H](O)C[C@@H]12 [Example 217],< 100,337
CC[C@H]1[C@@H](O)[C@@H]2[C@H](CC[C@]3(C)[C@@H]([C@H](C)CCOC(=O)N4CCC(CO)(CO)CC4)CC[C@@H]23)[C@@]2(C)CC[C@@H](O)C[C@@H]12 [Example 218],< 100,356
